The test system of data set [1] is IL-13 induced pSTAT6 induction in lung tissue. As to the kind of experiment: Murine model of IL-13 induced pSTAT6 induction in lung tissue. The format is in vivo. Particulars: mouse lung, 1 mg/mL 50 μL oral aspiration, IL-13 challenge 4 h after dose, lungs at 5 hours. An excerpt:
Assay 4: Murine (Mouse) Model of IL-13 Induced pSTAT6 Induction in Lung Tissue
Il-13 is an important cytokine underlying the pathophysiology of asthma (Kudlacz et al. Eur. J. Pharmacol, 2008, 582,154-161). IL-13 binds to cell surface receptors activating members of the Janus family of kinases (JAK) which then phosphorylate STAT6 and subsequently activates further transcription pathways. In the described model, a dose of IL-13 was delivered locally into the lungs of mice to induce the phosphorylation of STAT6 (pSTAT6) which is then measured as the endpoint.
Adult balb/c mice from Harlan were used in the assay. On the day of study, animals were lightly anesthetized with isoflurane and administered either vehicle or test compound (1 mg/mL, 50 μL total volume over several breaths) via oral aspiration. Animals were placed in lateral recumbency post dose and monitored for full recovery from anesthesia before being returned to their home cage. Four hours later, animals were once again briefly anesthetized and challenged with either vehicle or IL-13 (0.03 μg total dose delivered, 50 μL total volume) via oral aspiration before being monitored for recovery from anesthesia and returned to their home cage. One hour after vehicle or IL-13 administration, lungs were collected for both pSTAT6 detection using an anti-pSTAT6 ELISA (rabbit mAb capture/coating antibody; mouse mAb detection/report antibody: anti-pSTAT6-pY641; secondary antibody: anti-mouse IgG-HRP) and analyzed for total drug concentration as described above in Assay 3.
Selected compounds of the invention were tested in the assay. Activity in the model is evidenced by a decrease in the level of pSTAT6 present in the lungs of treated animals at 5 hours compared to the vehicle treated, IL-13 challenged control animals. The difference between the control animals which were vehicle-treated, IL-13 challenged and the control animals which were vehicle-treated, vehicle challenged dictated the 0% and 100% inhibitory effect, respectively, in any given experiment.

The target of another data set is JAK3 (Homo sapiens (Human), UniProt P52333). As to the kind of experiment: Biochemical JAK kinase assay (LanthaScreen), JAK3. Conditions: converted from pIC50 with Cheng-Prusoff equation. The method, then:
(§1) Assay 1: Biochemical JAK Kinase Assays
(§2) A panel of four LanthaScreen JAK biochemical assays (JAK1, 2, 3 and Tyk2) were carried in a common kinase reaction buffer (50 mM HEPES, pH 7.5, 0.01% Brij-35, 10 mM MgCl2, and 1 mM EGTA). Recombinant GST-tagged JAK enzymes and a GFP-tagged STAT1 peptide substrate were obtained from Life Technologies.
(§3) Serially diluted compounds were pre-incubated with each of the four JAK enzymes and the substrate in white 384-well microplates (Corning) at ambient temperature for 1 h. ATP was subsequently added to initiate the kinase reactions in 10 μL total volume, with 1% DMSO. […] The plates were allowed to incubate at ambient temperature for 1 h before being read on the EnVision reader (Perkin Elmer).
(§4) For dose-response analysis, percent inhibition data were plotted vs. compound concentrations, and IC50 values were determined from a 4-parameter robust fit model with the Prism software (GraphPad Software). Results were expressed as pIC50 (negative logarithm of IC50) and subsequently converted to pKi (negative logarithm of dissociation constant, Ki) using the Cheng-Prusoff equation.

Data set [2] relates to Alternaria alternata-induced eosinophilic inflammation of the lung (BALF eosinophils). Description: Murine model of Alternaria alternata-induced eosinophilic inflammation of the lung. Particulars: mouse, oropharyngeal aspiration 0.03-1.0 mg/mL, BALF 48 h after challenge; maximum statistically significant inhibition. The format is in vivo. An excerpt:
Assay 5: Murine Model of Alternaria alternata-Induced Eosinophilic Inflammation of the Lung
Airway eosinophilia is a hallmark of human asthma. Alternaria alternata is a fungal aeroallergen that can exacerbate asthma in humans and induces eosinophilic inflammation in the lungs of mice (Havaux et al. Clin Exp Immunol. 2005 February; 139(2):179-88).
Seven- to nine-week old male C57 mice from Taconic were used in the study. On the day of study, animals were lightly anesthetized with isoflurane and administered either vehicle or test compound (0.03-1.0 mg/mL, 50 μL total volume over several breaths) via oropharyngeal aspiration. Animals were placed in lateral recumbency post dose and monitored for full recovery from anesthesia before being returned to their home cage. One hour later, animals were once again briefly anesthetized and challenged with either vehicle or alternaria extract (200 ug total extract delivered, 50 μL total volume) via oropharyngeal aspiration before being monitored for recovery from anesthesia and returned to their home cage. Forty-eight hours after alternaria administration, bronchoalveolar lavage fluid (BALF) was collected and eosinophils were counted in the BALF using the Advia 120 Hematology System (Siemens). […]

A further data set deals with JAK1 (Homo sapiens (Human), UniProt P23458). Description: Biochemical JAK kinase assay (LanthaScreen), JAK1. Particulars: converted from pIC50 with Cheng-Prusoff equation. The method, then: as §1, §2, §3, §4
Chain of JAK1 (P23458 whole entry): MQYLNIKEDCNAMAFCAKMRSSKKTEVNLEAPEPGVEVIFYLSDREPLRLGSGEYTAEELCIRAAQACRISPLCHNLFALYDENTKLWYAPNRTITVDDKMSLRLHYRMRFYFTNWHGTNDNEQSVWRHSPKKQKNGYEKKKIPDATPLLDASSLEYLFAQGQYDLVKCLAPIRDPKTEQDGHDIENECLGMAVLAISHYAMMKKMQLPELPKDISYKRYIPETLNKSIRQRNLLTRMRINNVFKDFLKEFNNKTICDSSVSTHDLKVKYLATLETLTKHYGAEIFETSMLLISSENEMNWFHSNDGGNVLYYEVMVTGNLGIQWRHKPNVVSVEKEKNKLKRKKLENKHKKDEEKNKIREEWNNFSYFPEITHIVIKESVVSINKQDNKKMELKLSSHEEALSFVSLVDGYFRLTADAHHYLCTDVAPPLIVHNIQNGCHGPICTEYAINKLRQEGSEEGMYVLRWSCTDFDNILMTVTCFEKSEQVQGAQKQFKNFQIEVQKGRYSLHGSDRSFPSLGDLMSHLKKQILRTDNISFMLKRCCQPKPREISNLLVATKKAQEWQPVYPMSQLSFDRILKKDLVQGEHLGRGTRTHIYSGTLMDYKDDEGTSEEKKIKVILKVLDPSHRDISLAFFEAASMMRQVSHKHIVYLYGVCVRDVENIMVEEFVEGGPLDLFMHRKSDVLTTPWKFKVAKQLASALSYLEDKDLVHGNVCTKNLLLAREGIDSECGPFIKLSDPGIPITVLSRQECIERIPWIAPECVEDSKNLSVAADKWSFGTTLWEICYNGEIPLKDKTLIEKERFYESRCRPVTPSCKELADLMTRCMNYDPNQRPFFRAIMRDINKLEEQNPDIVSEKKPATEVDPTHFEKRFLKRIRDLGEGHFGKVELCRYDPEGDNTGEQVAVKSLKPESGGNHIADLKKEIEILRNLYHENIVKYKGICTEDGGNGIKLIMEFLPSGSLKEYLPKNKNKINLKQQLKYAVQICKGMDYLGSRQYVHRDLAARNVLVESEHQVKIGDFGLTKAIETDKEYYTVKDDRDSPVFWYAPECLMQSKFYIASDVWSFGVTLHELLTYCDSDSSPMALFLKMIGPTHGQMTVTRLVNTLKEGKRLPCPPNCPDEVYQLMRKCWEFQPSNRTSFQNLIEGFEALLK
On the technique in general: TR-FRET usually uses a lanthanide donor and a delayed reading to cut background.

Data set [3] deals with IL-13 induced STAT6 phosphorylation in BEAS-2B human lung epithelial cells. As to the kind of experiment: Cellular JAKI potency assay (AlphaScreen), BEAS-2B. The format is cell-based. Conditions: BEAS-2B cells. The method, then: Assay 2: Cellular JAKI Potency Assay
The AlphaScreen JAKI cellular potency assay was carried out by measuring interleukin-13 (IL-13, R&D Systems) induced STAT6 phosphorylation in BEAS-2B human lung epithelial cells (ATCC). The anti-STAT6 antibody (Cell Signaling Technologies) was conjugated to AlphaScreen acceptor beads (Perkin Elmer), while the anti-pSTAT6 (pTyr641) antibody (Cell Signaling Technologies) was biotinylated using EZ-Link Sulfo-NHS-Biotin (Thermo Scientific).
BEAS-2B cells were grown at 37° C. in a 5% CO2 humidified incubator in 50% DMEM/50% F-12 medium (Life Technologies) supplemented with 10% FBS (Hyclone), 100 U/mL penicillin, 100 μg/mL streptomycin (Life Technologies), and 2 mM GlutaMAX (Life Technologies). On day 1 of the assay, cells were seeded at a 7,500 cells/well density in white poly-D-lysine-coated 384-well plates (Corning) with 25 μL medium, and were allowed to adhere overnight in the incubator. On day 2 of the assay, the medium was removed and replaced with 12 μL of assay buffer (Hank's Balanced Salt Solution/HBSS, 25 mM HEPES, and 1 mg/ml bovine serum albumin/BSA) containing dose-responses of test compounds. Compounds were serially diluted in DMSO and then diluted another 1000-fold in media to bring the final DMSO concentration to 0.1%. Cells were incubated with test compounds at 37° C. for 1 h, and followed by the addition of 12 μl of pre-warmed IL-13 (80 ng/mL in assay buffer) for stimulation. After incubating at 37° C. for 30 min, the assay buffer (containing compound and IL-13) was removed, and 10 μL of cell lysis buffer (25 mM HEPES, 0.1% SDS, 1% NP-40, 5 mM MgCl2, 1.3 mM EDTA, 1 mM EGTA, and supplement with Complete Ultra mini protease inhibitors and PhosSTOP from Roche Diagnostics). The plates were shaken at ambient temperature for 30 min before the addition of detection reagents. A mixture of biotin-anti-pSTAT6 and anti-STAT6 conjugated acceptor beads was added first and incubated at ambient temperature for 2 h, followed by the addition of streptavidin conjugated donor beads (Perkin Elmer). After a minimum of 2 h incubation, the assay plates were read on the EnVision plate reader. AlphaScreen luminescence signals were recorded and utilized to calculate the percent inhibition values based on DMSO and background controls.
For dose-response analysis, percent inhibition data were plotted vs. compound concentrations, and IC50 values were determined from a 4-parameter robust fit model with the Prism software. Results may also be expressed as the negative logarithm of the IC50 value, pIC50.
Test compounds having a lower IC50 value or higher pIC50 value in this assay show greater inhibition of IL-13 induced STAT6 phosphorylation.

The nature of data set [4]: Pharmacokinetics in plasma and lung in mouse. Particulars: oral aspiration, 0.2 mg/mL 50 μL, lung AUC (μg hr/g) / plasma AUC (μg hr/mL).
The next data set has as its target JAK2 (Homo sapiens (Human), UniProt O60674). Description: Biochemical JAK kinase assay (LanthaScreen), JAK2. Conditions: converted from pIC50 with Cheng-Prusoff equation. The method, then:
as §1, §2, §3, §4

Chain of JAK3 (P52333 whole entry): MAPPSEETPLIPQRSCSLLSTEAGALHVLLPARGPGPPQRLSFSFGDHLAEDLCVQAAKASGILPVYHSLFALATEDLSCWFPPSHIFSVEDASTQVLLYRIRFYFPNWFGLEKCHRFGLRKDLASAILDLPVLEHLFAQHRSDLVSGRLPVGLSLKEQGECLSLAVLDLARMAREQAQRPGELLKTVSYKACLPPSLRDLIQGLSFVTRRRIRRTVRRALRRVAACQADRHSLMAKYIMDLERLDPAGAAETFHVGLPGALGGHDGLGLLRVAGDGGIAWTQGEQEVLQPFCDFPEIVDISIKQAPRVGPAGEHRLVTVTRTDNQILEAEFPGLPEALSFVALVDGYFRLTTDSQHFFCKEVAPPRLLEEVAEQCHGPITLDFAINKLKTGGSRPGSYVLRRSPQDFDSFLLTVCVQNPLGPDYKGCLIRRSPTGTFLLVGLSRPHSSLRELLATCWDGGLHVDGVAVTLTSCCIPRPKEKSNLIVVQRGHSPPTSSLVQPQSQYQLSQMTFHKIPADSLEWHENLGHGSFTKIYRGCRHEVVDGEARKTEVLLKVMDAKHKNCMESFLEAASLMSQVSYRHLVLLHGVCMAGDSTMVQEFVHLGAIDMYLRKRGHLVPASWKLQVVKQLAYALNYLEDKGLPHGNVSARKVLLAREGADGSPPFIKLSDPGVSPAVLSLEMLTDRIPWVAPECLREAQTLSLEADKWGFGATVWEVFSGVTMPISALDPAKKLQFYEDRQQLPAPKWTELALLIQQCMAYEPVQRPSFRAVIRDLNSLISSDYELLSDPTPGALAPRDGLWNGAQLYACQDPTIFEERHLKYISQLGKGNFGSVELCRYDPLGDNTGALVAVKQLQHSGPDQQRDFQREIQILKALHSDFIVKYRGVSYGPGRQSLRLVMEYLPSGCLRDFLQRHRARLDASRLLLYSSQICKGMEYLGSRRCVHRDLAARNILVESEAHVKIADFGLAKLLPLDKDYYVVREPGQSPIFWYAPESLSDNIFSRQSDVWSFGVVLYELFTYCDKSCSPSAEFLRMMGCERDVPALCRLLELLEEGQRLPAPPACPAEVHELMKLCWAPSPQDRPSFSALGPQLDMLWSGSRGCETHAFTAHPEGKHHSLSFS
Chain of JAK2 (O60674 whole entry): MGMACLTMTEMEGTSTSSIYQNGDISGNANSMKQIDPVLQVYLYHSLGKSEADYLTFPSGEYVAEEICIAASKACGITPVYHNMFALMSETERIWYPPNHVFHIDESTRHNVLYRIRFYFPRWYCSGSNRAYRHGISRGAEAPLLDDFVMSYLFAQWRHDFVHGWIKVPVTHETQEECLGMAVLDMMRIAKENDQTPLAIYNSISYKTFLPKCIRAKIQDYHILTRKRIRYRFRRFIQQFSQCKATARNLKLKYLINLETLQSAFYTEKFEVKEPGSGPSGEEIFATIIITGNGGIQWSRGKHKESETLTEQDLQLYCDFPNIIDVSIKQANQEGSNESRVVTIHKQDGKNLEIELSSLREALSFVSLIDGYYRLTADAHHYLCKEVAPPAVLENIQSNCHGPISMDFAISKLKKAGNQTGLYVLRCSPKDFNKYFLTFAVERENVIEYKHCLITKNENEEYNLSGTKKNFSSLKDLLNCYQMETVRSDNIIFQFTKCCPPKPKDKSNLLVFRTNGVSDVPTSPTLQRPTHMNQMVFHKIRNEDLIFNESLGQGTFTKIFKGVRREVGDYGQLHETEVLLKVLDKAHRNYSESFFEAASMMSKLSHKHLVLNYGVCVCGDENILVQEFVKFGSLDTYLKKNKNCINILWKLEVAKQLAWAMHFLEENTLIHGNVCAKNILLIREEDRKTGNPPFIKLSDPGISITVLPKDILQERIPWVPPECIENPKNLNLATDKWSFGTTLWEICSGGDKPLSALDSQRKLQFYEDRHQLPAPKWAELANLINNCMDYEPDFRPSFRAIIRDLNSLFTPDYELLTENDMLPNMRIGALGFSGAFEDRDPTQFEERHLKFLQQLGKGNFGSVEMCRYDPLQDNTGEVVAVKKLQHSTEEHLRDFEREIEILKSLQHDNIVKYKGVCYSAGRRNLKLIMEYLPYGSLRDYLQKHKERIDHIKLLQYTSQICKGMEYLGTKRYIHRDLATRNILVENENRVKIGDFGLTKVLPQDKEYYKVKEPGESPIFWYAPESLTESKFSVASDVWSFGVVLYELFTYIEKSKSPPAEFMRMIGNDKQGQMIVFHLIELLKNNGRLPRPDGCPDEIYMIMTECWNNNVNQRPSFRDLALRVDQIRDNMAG

As for `CCCN1Cc2[nH]c(-c3n[nH]c4cc(-c5cc(F)c(O)cc5CC)ccc34)nc2C[C@H]1C(=O)N1CC(N(C)C)C1` [Example 4, (S)-(3-(dimethylamino)azetidin-1-yl)(2-(6-(2-ethyl-5-fluoro-4-hydroxyphenyl)-1H-indazol-3-yl)-5-propyl-4,5,6,7-tetrahydro-3H-imidazo[4,5-c]pyridin-6-yl)methanone], in data set [1], the “pSTAT6 inhibition Assay 4” value is “A (A represents between 60% and 80% inhibition)”. The inhibitory constant (Ki) (in general, the equilibrium dissociation constant of an inhibitor or competing ligand from its target) at JAK3 was found to be 0.13 nM; on JAK1, 0.06 nM. Moreover, the “Percent Inhibition of Alternaria-induced BALF Eosinophils” value in data set [2] was 79%. In addition, in data set [3] (Homo sapiens), the IC50 (as a rule, the point on the concentration scale where inhibition reaches its midpoint) was 7.4 nM. Moreover, the “Lung to Plasma ratio Assay 3” value in data set [4] is “C (C denotes a ratio between 20 and 50)”.

Turning to `CCc1cc(O)c(F)cc1-c1ccc2c(-c3nc4c([nH]3)CN(CC)[C@@H](C(=O)N3CC(N5CCCCC5)C3)C4)n[nH]c2c1` [Example 8-15], the “pSTAT6 inhibition Assay 4” value in data set [1] was “C (C represents between 25% and 40% inhibition)”. Besides, 5.6 nM corresponded to half-maximal inhibition in data set [3] (IC50). Also, at JAK2, the affinity corresponds to a Ki of 0.03 nM.

The record behind these values is US10196393B2, “JAK inhibitors containing a 4-membered heterocyclic amide” (THERAVANCE BIOPHARMA R&D IP, LLC, priority 2017, dated 2019).
